The supplement of paper PMC13207355

Legend:
Conditions in all cases: exposure time: 72 h
E13 [1] = patient-derived glioblastoma stem cells of classical subtype; test: phenotypic distance (Euclidean, principal components) from DMSO controls (arbitrary units); higher = stronger morphological change
E31 [2] = patient-derived glioblastoma stem cells of proneural subtype; test: as above
E28 [3] = patient-derived glioblastoma stem cells of classical subtype; test: as above
FT3469 [4] = normal neural stem cell line; test: as above
E34 [5] = patient-derived glioblastoma stem cells of proneural subtype; test: as above
E57 [6] = patient-derived glioblastoma stem cells of mesenchymal subtype; test: as above
E21 [7] = patient-derived glioblastoma stem cells of mesenchymal subtype; test: as above
E13 [8] = test: surviving fraction (nuclei count normalised to DMSO); higher = more cells surviving (less toxic)
E31 [9] = test: as above
E28 [10] = test: as above
FT3469 [11] = test: as above
E34 [12] = test: as above
E57 [13] = test: as above
E21 [14] = test: as above
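Throughout, for phenotypic distance (Euclidean, principal components) from DMSO controls: cell Painting imaging in 384-well plates, CellProfiler features reduced to at least 20 principal components, Euclidean distance versus same-plate DMSO vehicle wells (0.1% v/v), median over six images per well.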
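Throughout, for surviving fraction (nuclei count normalised to DMSO): nuclei counted by high-content imaging of Hoechst-stained cells in laminin-coated 384-well plates, relative to 0.1% DMSO vehicle wells, with staurosporine as cell-death control.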

C[C@@H](Oc1cc(-c2cnn(C3CCNCC3)c2)cnc1N)c1c(Cl)ccc(F)c1Cl [Crizotinib]
Conditions	phenotypic distance	surviving fraction
E13 [1], 4.1 nM	0.499	–
E13 [1], 12.3 nM	0.452	–
E13 [1], 37 nM	0.936	–
E13 [1], 111.1 nM	0.626	–
E13 [1], 333.3 nM	0.58	–
E13 [1], 1000 nM	1.09	–
E13 [1], 3000 nM	3.75	–
E13 [8], 4.1 nM	–	0.978
E13 [8], 12.3 nM	–	0.948
E13 [8], 37 nM	–	0.972
E13 [8], 111.1 nM	–	0.863
E13 [8], 333.3 nM	–	0.881
E13 [8], 1000 nM	–	0.849
E13 [8], 3000 nM	–	0.482
E21 [7], 4.1 nM	0.599	–
E21 [7], 12.3 nM	1.58	–
E21 [7], 37 nM	0.706	–
E21 [7], 111.1 nM	0.783	–
E21 [7], 333.3 nM	0.751	–
E21 [7], 1000 nM	1.37	–
E21 [7], 3000 nM	3.3	–
E21 [14], 4.1 nM	–	0.907
E21 [14], 12.3 nM	–	0.826
E21 [14], 37 nM	–	1.02
E21 [14], 111.1 nM	–	0.883
E21 [14], 333.3 nM	–	0.986
E21 [14], 1000 nM	–	0.78
E21 [14], 3000 nM	–	0.472
E28 [3], 4.1 nM	0.935	–
E28 [3], 12.3 nM	0.741	–
E28 [3], 37 nM	1.91	–
E28 [3], 111.1 nM	0.725	–
E28 [3], 333.3 nM	0.457	–
E28 [3], 1000 nM	0.886	–
E28 [3], 3000 nM	2.74	–
E28 [10], 4.1 nM	–	1.02
E28 [10], 12.3 nM	–	0.941
E28 [10], 37 nM	–	0.83
E28 [10], 111.1 nM	–	0.923
E28 [10], 333.3 nM	–	0.96
E28 [10], 1000 nM	–	0.837
E28 [10], 3000 nM	–	0.326
E31 [2], 4.1 nM	0.339	–
E31 [2], 12.3 nM	0.524	–
E31 [2], 37 nM	0.734	–
E31 [2], 111.1 nM	0.728	–
E31 [2], 333.3 nM	0.762	–
E31 [2], 1000 nM	1.01	–
E31 [2], 3000 nM	3.13	–
E31 [9], 4.1 nM	–	0.998
E31 [9], 12.3 nM	–	1.05
E31 [9], 37 nM	–	0.891
E31 [9], 111.1 nM	–	0.884
E31 [9], 333.3 nM	–	1.13
E31 [9], 1000 nM	–	0.96
E31 [9], 3000 nM	–	0.472
E34 [5], 4.1 nM	0.825	–
E34 [5], 12.3 nM	0.797	–
E34 [5], 37 nM	0.989	–
E34 [5], 111.1 nM	0.934	–
E34 [5], 333.3 nM	0.571	–
E34 [5], 1000 nM	1.16	–
E34 [5], 3000 nM	2.7	–
E34 [12], 4.1 nM	–	0.973
E34 [12], 12.3 nM	–	0.985
E34 [12], 37 nM	–	0.786
E34 [12], 111.1 nM	–	1.1
E34 [12], 333.3 nM	–	0.933
E34 [12], 1000 nM	–	0.88
E34 [12], 3000 nM	–	0.565
E57 [6], 4.1 nM	0.221	–
E57 [6], 12.3 nM	1.2	–
E57 [6], 37 nM	0.43	–
E57 [6], 111.1 nM	0.517	–
E57 [6], 333.3 nM	0.355	–
E57 [6], 1000 nM	0.883	–
E57 [6], 3000 nM	4.09	–
E57 [13], 4.1 nM	–	1.03
E57 [13], 12.3 nM	–	0.937
E57 [13], 37 nM	–	1.01
E57 [13], 111.1 nM	–	0.957
E57 [13], 333.3 nM	–	1.04
E57 [13], 1000 nM	–	0.857
E57 [13], 3000 nM	–	0.477
FT3469 [4], 4.1 nM	0.558	–
FT3469 [4], 12.3 nM	0.592	–
FT3469 [4], 37 nM	0.496	–
FT3469 [4], 111.1 nM	0.573	–
FT3469 [4], 333.3 nM	0.58	–
FT3469 [4], 1000 nM	0.774	–
FT3469 [4], 3000 nM	2.09	–
FT3469 [11], 4.1 nM	–	0.854
FT3469 [11], 12.3 nM	–	1.03
FT3469 [11], 37 nM	–	1.09
FT3469 [11], 111.1 nM	–	1.09
FT3469 [11], 333.3 nM	–	0.941
FT3469 [11], 1000 nM	–	0.891
FT3469 [11], 3000 nM	–	0.574
